Series [1] deals with T1, peroxidase activity (human TPO) in HEK-TPOA7 cell lysate (Homo sapiens, UniProt P07202).
T1 construct: We have transfected the full length of TPO, which is 933 amino acids; expressed in transfected cells; host or cells: HEK293T (clone HEK-TPOA7), lentiviral transduction, CMV promoter
T1 sequence (P07202 19-933): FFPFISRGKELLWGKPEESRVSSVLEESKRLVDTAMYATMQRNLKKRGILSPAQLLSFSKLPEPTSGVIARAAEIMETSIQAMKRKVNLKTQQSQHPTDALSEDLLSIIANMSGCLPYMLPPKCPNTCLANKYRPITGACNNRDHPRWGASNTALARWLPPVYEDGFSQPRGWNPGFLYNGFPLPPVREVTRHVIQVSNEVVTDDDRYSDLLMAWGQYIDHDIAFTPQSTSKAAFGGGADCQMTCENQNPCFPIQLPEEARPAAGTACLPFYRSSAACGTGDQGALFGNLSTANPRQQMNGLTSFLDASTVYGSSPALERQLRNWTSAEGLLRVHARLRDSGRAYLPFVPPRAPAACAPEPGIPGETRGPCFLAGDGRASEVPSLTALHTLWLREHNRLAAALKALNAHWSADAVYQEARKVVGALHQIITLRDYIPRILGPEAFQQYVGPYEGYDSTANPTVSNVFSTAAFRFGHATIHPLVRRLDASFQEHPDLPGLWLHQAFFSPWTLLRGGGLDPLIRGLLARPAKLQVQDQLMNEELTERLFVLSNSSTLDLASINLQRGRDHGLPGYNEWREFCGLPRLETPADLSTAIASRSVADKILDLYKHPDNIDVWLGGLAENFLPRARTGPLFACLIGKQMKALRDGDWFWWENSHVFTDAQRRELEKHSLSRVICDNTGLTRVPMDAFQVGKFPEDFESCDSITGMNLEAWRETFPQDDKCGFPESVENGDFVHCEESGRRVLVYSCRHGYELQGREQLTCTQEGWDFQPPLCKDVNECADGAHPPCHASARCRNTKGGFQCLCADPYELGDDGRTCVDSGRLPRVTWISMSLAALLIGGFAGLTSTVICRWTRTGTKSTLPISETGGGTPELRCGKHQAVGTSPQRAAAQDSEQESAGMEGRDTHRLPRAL
In words: TPO luminol (Lumi) assay, HEK-TPOA7 cell lysate. Type of series: biochemical. From the text:
(§1) A human TPO (hTPO) sequence was obtained from NCBI (NM_000547.5) and it was used for the production of lentiviral vector by VectorBuilder (Malvern, USA) containing the gene of interest under the transcriptional control of CMV promotor and EGFP gene linked with puromycin resistance gene under control of EFS promotor (pLV[Exp]-CMV > {NM_000547_5}-EFS > EGFP:T2A:Puro). The purified vector was used to produce lentiviral particles in Lenti-X cell line (TakaraBio Inc., Göteborg, Sweden). […] The medium was replaced 3 h after exposure. The conditioned lentiviral medium was harvested 48 and 72 h later, frozen and stored at − 80 °C. HEK293T cells were exposed to the conditioned lentiviral medium supplemented with Polybrene (10 µg/mL, Merck, Prague, Czech Republic). After 24 h, the medium was replaced with fresh medium with puromycin (Invivogen, Toulouse, France) as a selection factor. After the puromycin treatment, cells were sorted on a FACS sorter FACSAria Fusion (BD Biosciences, Prague, Czech Republic) to obtain GFP-expressing cell clones that were further characterized.

Series [2] has as its target T2, human TPO (HEK-TPOA7 cell lysate) (Homo sapiens, UniProt P07202).
T2 construct: We have transfected the full length of TPO, which is 933 amino acids; expressed in transfected cells; host or cells: HEK293T (clone HEK-TPOA7), lentiviral transduction, CMV promoter
T2 sequence (P07202 19-933): T1 sequence (P07202 19-933)
In words: AUR-TPO assay, HEK-TPOA7 cell lysate. Type of series: biochemical.
Source text: as §1
Lower final volume and concentration of H2O2 were used. […] Nonspecific influence of the chemicals themselves on the fluorescence signal was assessed by measuring the fluorescence signal after co-incubating the chemicals (30 min at 37 °C) with 0.3 µM Resorufin and 40 µM H2O2 with the same excitation/emission spectra as with the AUR.
Test of the effect of H2O2 concentration on the TPO activity measurement in the AUR assay: To assess the impact of H2O2 level on the AUR assay, a subset of chemicals (Table S6) was subjected to analysis at two H2O2 concentrations, 40 µM and 300 µM, to evaluate any variance in response.

In series [3] the test system is peroxidase activity (TPO) in Nthy-ori 3-1 cell lysate.
Protocol: (§2) Briefly, the cells were washed with phosphate-buffered saline (PBS), scraped, resuspended in PBS, and centrifuged for 5 min at 150 rcf. The supernatant was discarded, the pellet was lysed with 0.1% m/v sodium deoxycholate (DC, in PBS) and incubated on ice for 20 min. Lysed cells were centrifuged for 5 min at 12,000 rcf to extract the soluble protein fraction. The supernatant protein concentration was measured using the Bio-Rad DC-protein assay following the manufacturer’s protocol. The cell lysates were kept at − 80 °C for longer-term storage.
(§3) It was performed in the white 96-well plates with total volume of reaction mixture 200 μL per well containing 100 μL cell lysate with protein content of 0.12 mg/mL (final 0.06 mg/mL), 100 μl GNE solution [1 M glycine–NaOH (pH 9.0), 1 mM EDTA] with the test chemical in MeOH (1% MeOH final concentration). The plate was incubated for 30 min with gentle shaking at 37 °C.
(§4) For the data analysis, GraphPad Prism™ (GraphPad Software, San Diego, USA) was used for curve-fitting and IC50 or IC20 calculation. The signal (RLUs or fluorescence intensity) from the wells-containing cell lysate and chemical was background corrected (average RLUs or fluorescence intensity of lysate-free wells), then normalized to the solvent control (100% activity). Fold change of signal intensity was calculated by dividing the signal from cell lysate-containing wells by the signal from the background (average of cell lysate-free wells).
For another series, the system named is TPO (CHO-TPO). More on the design: method as in Dong et al. (2020). The conditions noted are these: ref Dong et al. (2020); read-out: AUR assay IC50, CHO-TPO; cited from earlier work.
A further series deals with TPO (LentiX-TPO). More on the design: method as in Dong et al. (2020). The conditions noted are these: ref Dong et al. (2020); read-out: AUR assay IC50, LentiX-TPO; cited from earlier work.
The subject of series [4] is peroxidase activity (TPO) in FRTL-5 cell lysate. In words: TPO luminol (Lumi) assay, FRTL-5 cell lysate.
Protocol: The FRTL-5 (RRID:CVCL_0265), a spontaneously immortalized rat thyroid follicular cell line obtained from Sigma-Aldrich, was cultured in Coon F12 medium (Sigma-Aldrich) supplemented with L-Glutamine, hydrocortisone, somatostatin, TSH and 10% FBS.
(§5) HEPES solution (Sigma-Aldrich) was added to balance the pH.
as §2, §3
For the data analysis, GraphPad Prism™ (GraphPad Software, San Diego, USA) was used for curve-fitting and IC50 or IC20 calculation. The signal (RLUs or fluorescence intensity) from the wells-containing cell lysate and chemical was background corrected (average RLUs or fluorescence intensity of lysate-free wells), then normalized to the solvent control (100% activity).
Series [5] relates to peroxidase activity in HEK293T cell lysate (no TPO expression). In words: TPO luminol (Lumi) assay, HEK293T cell lysate.
Protocol: The HEK293T (RRID:CVCL_0063), a human embryonal kidney SV40 transformed immortalized cell line obtained from ATCC, as well as the derived TPO-transfected HEK293T cell line, were cultured in DMEM High Glucose media (Biosera, BioTech) supplemented with 10% FBS.
as §5, §2, §3, §4
The test system of series [6] is TPO (rat thyroid microsomes). Also on record: method as in Friedman et al. 2016. The settings on record: microsomes from 120 pooled rat thyroids; ref Friedman et al. 2016; cited from earlier work.
In series [7] the test system is peroxidase activity (TPO) in Nthy-ori 3-1 cell lysate. More on the design: method as in Jomaa et al. (2015). The settings on record: ref Jomaa et al. (2015); read-out: Lumi assay IC50, Nthy-ori 3-1; cited from earlier work.
For another series, the system named is TPO (Nthy-ori 3-1). More on the design: method as in Jomaa et al. (2015). The settings on record: ref Jomaa et al. (2015); read-out: AUR assay IC50, Nthy-ori 3-1; cited from earlier work.
Series [8] relates to peroxidase activity (TPO) in Nthy-ori 3-1 cell lysate. Briefly: TPO luminol (Lumi) assay, Nthy-ori 3-1 cell lysate. The conditions noted are these: read-out: Lumi assay IC50, Nthy-ori 3-1.
Protocol: as §2, §3, §4
Series [9] is described as follows: Solubility of triclosan (PubChem). Type of series: physicochemical. The settings on record: 20 °C; equivalent of 10 mg/L; ref PubChem.
[10] abbreviates: current study, n ≥ 3, hematin pre-treated cells, NA = not active up to the highest tested concentration, read-out: Lumi assay IC50, HEK-TPOA7.
Where [11] appears, read: current study, n ≥ 3, pH 7.2, 40 µM H2O2, NA = not active up to the highest tested concentration, read-out: AUR assay IC50, HEK-TPOA7.
[12] abbreviates: lysate of cells with hematin pre-treatment, unit inferred, read-out: IC50, HEK-TPOA7, AUR assay, hematin +.
The mark [13] stands for this setting: lysate of cells without hematin pre-treatment, unit inferred, read-out: IC50, HEK-TPOA7, AUR assay, hematin -.
[14] abbreviates: read-out: IC50, AUR assay, H2O2 300uM, HEK-TPOA7 lyzate, n=2, unit not given in Table S6.
Where [15] appears, read: read-out: IC50, FRTL-5, Lumi assay, hematin +, lysate of cells with hematin pre-treatment, unit inferred.
Setting [16] is: read-out: Lumi assay IC50, FRTL-5, current study, n ≥ 3, NA = not active up to the highest tested concentration.
Where [17] appears, read: lysate of cells without hematin pre-treatment, unit inferred, read-out: IC50, HEK-TPOA7, Lumi assay, hematin -.
The mark [18] stands for this setting: IC50, AUR assay, H2O2 300uM, HEK-TPOA7 lyzate, n=2, unit not given in Table S6.
Setting [19] is: read-out: Lumi assay IC50, HEK293T, current study, PTU n = 2.
The mark [20] stands for this setting: IC20 shown where IC50 was not reached, read-out: AUR assay IC20, HEK-TPOA7.

Read-outs that look alike come from different tables or passages of the source.

As a reminder, the IC50 is the point on the concentration scale where inhibition reaches its midpoint. Usually IC20 stands for the concentration needed for an effect of 20%.

As to `O=C(c1ccc(O)cc1O)c1ccc(O)cc1O` [BP2, 2,2′-4,4′-tetrahydroxy benzophenone], the IC50 came out at 20.2 µM in series [1] (setting [10]); 0.56 µM in series [2] (setting [11]); 0.56 µM in [2] (setting [12]); 0.48 µM in [2] (setting [13]); 0.64 µM in series [2] (setting [14]); 38.5 µM in series [3]. Besides, the IC50 in the series with TPO (CHO-TPO) is 0.2 µM; with TPO (LentiX-TPO), 0.24 µM; in [4] (setting [15]) it was 31.4 µM; in [4] (setting [16]) it was 29.6 µM.
`CC(C)(c1ccc(O)cc1)c1ccc(O)cc1` [BPA, Bisphenol A]: the IC50 stood at 130 µM in series [1] (setting [10]); 107 µM in series [1] (setting [17]); 10.9 µM in series [2] (setting [18]); 10.6 µM in series [2] (setting [12]); 8.29 µM in series [2] (setting [13]); 120 µM in [3]. Further, the IC50 is 166 µM in series [4] (setting [15]), 143 µM in series [4] (setting [16]) and 122 µM in series [5] (setting [19]).
Regarding `S=C1NCCN1` [ETU, Ethylene thiourea], the “TPO inhibition in rat thyroid-based AUR assay (ToxCast)” value in [6] was “quantifiable IC50”.
Turning to `Cn1cc[nH]c1=S` [MMI, Methimazole, reference compound], the IC50 in [1] (setting [10]) was determined as 3.24 µM; in [2] (setting [18]) it was 1.33 µM; in [2] (setting [11]), 1.5 µM; in series [2] (setting [12]) it was 1.5 µM; in series [2] (setting [13]), 1.12 µM; in series [3] it was 3.91 µM. In addition, the IC50 was 4 µM in [7]; 2.7 µM with TPO (Nthy-ori 3-1); 0.49 µM in the series on TPO (CHO-TPO); 0.23 µM with TPO (LentiX-TPO); 3.59 µM in series [4] (setting [15]); 3.69 µM in [4] (setting [16]).
Regarding `O=C(O)C(F)(F)C(F)(F)C(F)(F)C(F)(F)C(F)(F)C(F)(F)C(F)(F)F` [PFOA, Perfluorooctanoic acid], the IC20 came out at 110 µM in series [1] (IC20 shown where IC50 was not reached) and 5.15 µM in series [2] (setting [20]).
Consider `CCCc1cc(=O)[nH]c(=S)[nH]1` [PTU, 6-propylthiouracil, reference compound], for which the IC50 in [3] is 11.7 µM; in series [7], 16.4 µM; with TPO (Nthy-ori 3-1), 35.2 µM; in the series with TPO (CHO-TPO), 4.9 µM; in the series on TPO (LentiX-TPO) it was 10.4 µM; in series [4] (setting [15]) it was 12.5 µM. For the same compound, the IC50 in [4] (setting [16]) was determined as 13.2 µM; in series [5] (setting [19]) it was 18.9 µM.
In the case of `Oc1cccc(O)c1` [RSC, Resorcinol], the IC50 in series [1] (setting [10]) worked out at 17.9 µM; in series [2] (IC50, AUR assay, H2O2 40uM, HEK-TPOA7 lyzate, n=2, unit not given in Table S6) it was 0.36 µM; in series [2] (setting [18]), 0.61 µM; in series [2] (setting [11]) it was 0.358 µM; in [2] (setting [12]), 0.36 µM; in series [2] (setting [13]), 0.36 µM. For the same compound, the IC50 in series [3] was 13.8 µM; with TPO (CHO-TPO), 0.05 µM; in the series with TPO (LentiX-TPO) it was 0.06 µM; in series [4] (setting [15]), 13.9 µM; in series [4] (setting [16]), 15.7 µM.
In the case of `Cc1cc(NS(=O)(=O)c2ccc(N)cc2)no1` [SMX, Sulfamethoxazol, reference compound], the IC20 in series [2] (HEK-TPOA7 lyzate, n=2, starred chemicals, unit not given in Table S6, read-out: IC20, AUR assay, H2O2 300uM) was 140 µM; in series [2] (setting [20]), 101 µM.
As for `CC(C)(c1cc(Br)c(O)c(Br)c1)c1cc(Br)c(O)c(Br)c1` [TBBPA, Tetrabromobisphenol A], the IC50 worked out at 90.9 µM in [1] (setting [10]); 107 µM in series [1] (setting [17]); 8.65 µM in series [2] (setting [11]); 8.65 µM in series [2] (setting [12]); 8.2 µM in series [2] (setting [13]); 6.5 µM in series [2] (setting [14]). The 50% inhibitory concentration (IC50) in series [4] (setting [15]) came out at 190 µM; in series [4] (setting [16]), 130 µM; in series [5] (read-out: IC50, HEK293T, Lumi assay, hematin +, lysate of cells with hematin pre-treatment, unit inferred) it was 87.1 µM; in [5] (setting [19]) it was 64.4 µM; in series [8] it was 77.2 µM.
In the case of `Oc1cc(Cl)ccc1Oc1ccc(Cl)cc1Cl` [TCS, Triclosan], the IC50 in [1] (setting [10]) was 38.4 µM; in series [2] (HEK-TPOA7, pH 8.8 (SD = 14), read-out: AUR assay IC50 at higher pH), 72.7 µM; in series [2] (setting [18]), 165 µM; in series [2] (setting [12]), 197 µM; in the series with TPO (CHO-TPO), over 253 µM; in the series on TPO (LentiX-TPO), over 253 µM. Further, the IC50 in [4] (setting [15]) stood at 46.2 µM; in series [4] (setting [16]), 67.9 µM; in series [5] (setting [19]) it was 47.8 µM; in series [8], 51 µM. Besides, in [9], the “solubility (equivalent)” value was found to be 34.5 µM.

Source of the values: paper PMC11272733, “In vitro assessment of thyroid peroxidase inhibition by chemical exposure: comparison of cell models and detection methods” (Archives of Toxicology, 2024).
